Data published in US11826373B2, “Methods for treatment of diseases” (Galera Labs, LLC, priority 2011, dated 2023).

Experiment: Activity toward hydrogen peroxide
Assay type: biochemical

Row | Molecule | activity toward hydrogen peroxide
1 | manganese [III] tetrakis-(5,10,15,20)-benzoic acid porphyrin [MnTBAP] | significant activity
2 | CC(C)c1cc(C(=O)O)c([O-])c(C(C)C)c1.CC(C)c1cc(C(=O)O)c([O-])c(C(C)C)c1.[Cu+2] [CuDIPS, copper [II] diisopropylsalicylate] | significant activity
3 | mangafodipir | significant activity
